# Assay results as given in PubChem BioAssay AID1332 (Southern Research Institute, 2008).
# Starred links: 1 amine or outer side, 2 acyl side, 3 side chain; linkers in the order of their positions; H or OH if unused. Positions of bridges follow the written chain, without caps; N, C: chain ends. Non-standard residues stand in square brackets, D forms with d. Residues, ends and D or L forms follow the SMILES beside them. *: point of attachment. X2 = NC1=N[C@@H]([C@H](N[*:1])C(=O)[*:2])C[C@H](O)N1; ΔAla(Z-3-ureido) = NC(=O)N/C=C(\N)C(=O)O; β3hOrn = NCCC[C@H](N)CC(=O)*; Dap = NC[C@H](N)C(=O)O
# Tested on: M. tuberculosis H37Rv growth inhibition
# Assay: Confirmatory growth inhibition assay, mycobacterium tuberculosis h37rv, with cytotoxicity (AID 1332);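 further: bacteria incubated 7 days before adding Alamar blue readout reagent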
row,Structure (SMILES),IC90
1,COc1cc2cc3c4cc(OC)c(OC)cc4cc[n+]3c(C)c2cc1OC,2.13 µg/mL
2,CCCCCCC[N+](CC)(CC)CCCCc1ccc(Cl)cc1,15.6 µg/mL
3,CC(C)(C)c1ccc(C(O)CCCN2CCC(C(O)(c3ccccc3)c3ccccc3)CC2)cc1 (centres undefined),1.61 µg/mL
4,CC(C)N=c1cc2n(-c3ccc(Cl)cc3)c3ccccc3nc-2cc1Nc1ccc(Cl)cc1,0.04 µg/mL
5,CN(C)[C@@H]1C(=O)C(C(N)=O)=C(O)[C@@]2(O)C(=O)C3=C(O)c4c(O)ccc(Cl)c4[C@@H](O)[C@H]3C[C@@H]12,12.6 µg/mL
6,CCC(C)[C@H]1O[C@]2(C=C[C@@H]1C)C[C@@H]1C[C@@H](C/C=C(\C)C(O[C@H]3C[C@H](OC)C(O[C@H]4C[C@H](OC)[C@@H](O)[C@H](C)O4)[C@H](C)O3)[C@@H](C)/C=C/C=C3\CO[C@@H]4[C@H](O)C(C)=C[C@@H](C(=O)O1)[C@]34O)O2 (some centres undefined),2.72 µg/mL
7,O=C1OCCN1/N=C/c1ccc([N+](=O)[O-])o1,5.4 µg/mL
8,N=C(N)c1ccc(OCCCCCOc2ccc(C(=N)N)cc2)cc1,1.68 µg/mL
9,N[C@@H]1CONC1=O,1.05 µg/mL
10,CNCCC=C1c2ccccc2CCc2ccccc21,16.8 µg/mL
11,Cc1cccc(C)c1NC(=O)CN1CCN(CCCC(c2ccc(F)cc2)c2ccc(F)cc2)CC1,5.27 µg/mL
12,CCn1cc(C(=O)O)c(=O)c2cc(F)c(N3CCNCC3)nc21,4.1 µg/mL
13,CCN(CC)C(=S)SSC(=S)N(CC)CC,0.164 µg/mL
14,CN[C@@H]1[C@H](O[C@H]2[C@H](O[C@@H]3[C@@H](O)[C@H](O)[C@@H](N=C(N)N)[C@H](O)[C@H]3N=C(N)N)O[C@@H](C)[C@]2(O)C=O)O[C@@H](CO)[C@H](O)[C@H]1O,1.11 µg/mL
15,NC[C@H]1O[C@H](O[C@H]2[C@H](O)[C@@H](O[C@H]3O[C@H](CO)[C@@H](O)[C@H](N)[C@H]3O)[C@H](N)C[C@@H]2N)[C@H](N)C[C@@H]1O,1.94 µg/mL
16,CS(=O)(=O)c1ccc([C@@H](O)[C@@H](CO)NC(=O)C(Cl)Cl)cc1,2.42 µg/mL
17,CCCCCCCCCCCCCCCC[N+](C)(C)CCN(Cc1ccc(OC)cc1)c1ncccn1,1.1 µg/mL
18,Cc1c(OCC(F)(F)F)ccnc1CS(=O)c1nc2ccccc2[nH]1 (centres undefined),10.1 µg/mL
19,Cc1cc(N)c2ccccc2[n+]1CCCCCCCCCC[n+]1c(C)cc(N)c2ccccc21,1.78 µg/mL
20,COc1ccc(CCN2CCC(Nc3nc4ccccc4n3Cc3ccc(F)cc3)CC2)cc1,6.79 µg/mL
21,Nc1ccc(S(=O)(=O)Nc2cnc3ccccc3n2)cc1,12.7 µg/mL
22,NCCC[C@H](N)CC(=O)N[C@H]1CNC(=O)[C@H]([C@H]2C[C@H](O)NC(N)=N2)NC(=O)/C(=C/NC(N)=O)NC(=O)[C@H](CO)NC(=O)[C@H](CO)NC1=O (β3hOrn-[Dap]SS[ΔAla(Z-3-ureido)][X2]; lactam 1-C),0.069 µg/mL
23,CC/C(=C(\c1ccccc1)c1ccc(OCCN(C)C)cc1)c1ccccc1,13.6 µg/mL
24,COc1cccc2c1C(=O)c1c(O)c3c(c(O)c1C2=O)C[C@@](O)(C(=O)CO)C[C@@H]3O[C@H]1C[C@H](N)[C@H](O)[C@H](C)O1,2.6 µg/mL
